Data as given in the supplement of paper PMC11451515.

Assays:
Conditions in all cases: 48 h
[1] = test system: SEM cells; experiment: cell viability relative to DMSO control; higher = less cytotoxic
In short: (§1)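 Cells were incubated for 48 h at 37°C before CellTiter-Glo One luminescence was read. The cells were NOMO1 or SEM (500 cells/well) or P12-Ichikawa (1000 cells/well) leukemia cells, adapted for at least four passages in each medium and seeded in 1536-well plates (5 μl). Dosing used library compounds in DMSO applied by pin over 11 threefold points, 47 μM to 0.79 nM. Viability is the per-plate percentage of DMSO wells, with cell-free wells as background.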

[2] = test system: NOMO1; experiment: as above
In short: as §1

[3] = test system: P12-Ichikawa; experiment: as above
In short: as §1

[4] = test system: SEM cells; experiment: AUC of viability dose-response curve (% viability x log10 dose units); higher = less sensitive
In short: (§2)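 Leukemia cells adapted to each medium (500 or 1000 cells/well, 1536-well plates) were exposed to library compounds in DMSO for 48 h at 37°C at 11 threefold doses, 47 μM to 0.79 nM. Luminescence by CellTiter-Glo One was normalised per plate to DMSO and cell-free wells, then fitted with a four-parameter log-logistic curve on log10 dose. Curves above full viability were scaled and quality-control failures removed before area under the curve was integrated by trapezoidal rule.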

[5] = test system: NOMO1; experiment: as above
In short: as §2

[6] = test system: P12-Ichikawa; experiment: as above
In short: as §2

C\C1=C\C(=O)OC2=C1C=CC(=C2)O
cell viability [%]
Conditions	[1]	[2]	[3]
HPLM + 10% dialyzed FBS, 0.000781 µM	120	119	122
HPLM + 10% dialyzed FBS, 0.00234 µM	114	129	121
HPLM + 10% dialyzed FBS, 0.00702 µM	126	122	121
HPLM + 10% dialyzed FBS, 0.0211 µM	119	133	122
HPLM + 10% dialyzed FBS, 0.0632 µM	118	120	109
HPLM + 10% dialyzed FBS, 0.19 µM	119	130	116
HPLM + 10% dialyzed FBS, 0.569 µM	128	120	108
HPLM + 10% dialyzed FBS, 1.71 µM	77.1	118	107
HPLM + 10% dialyzed FBS, 5.12 µM	122	113	106
HPLM + 10% dialyzed FBS, 15.4 µM	111	110	102
HPLM + 10% dialyzed FBS, 46.1 µM	109	104	93
RPMI 5 mM glucose + 10% FBS, 0.000781 µM	98.1	116	112
RPMI 5 mM glucose + 10% FBS, 0.00234 µM	118	122	119
RPMI 5 mM glucose + 10% FBS, 0.00702 µM	108	117	115
RPMI 5 mM glucose + 10% FBS, 0.0211 µM	104	111	122
RPMI 5 mM glucose + 10% FBS, 0.0632 µM	118	119	109
RPMI 5 mM glucose + 10% FBS, 0.19 µM	110	122	114
RPMI 5 mM glucose + 10% FBS, 0.569 µM	118	105	107
RPMI 5 mM glucose + 10% FBS, 1.71 µM	87.3	120	111
RPMI 5 mM glucose + 10% FBS, 5.12 µM	108	117	99.9
RPMI 5 mM glucose + 10% FBS, 15.4 µM	97.1	123	118
RPMI 5 mM glucose + 10% FBS, 46.1 µM	92.1	106	99.1
RPMI 5 mM glucose + 10% dialyzed FBS, 0.000781 µM	120	117	122
RPMI 5 mM glucose + 10% dialyzed FBS, 0.00234 µM	119	118	115
RPMI 5 mM glucose + 10% dialyzed FBS, 0.00702 µM	146	120	114
RPMI 5 mM glucose + 10% dialyzed FBS, 0.0211 µM	136	118	122
RPMI 5 mM glucose + 10% dialyzed FBS, 0.0632 µM	135	110	120
RPMI 5 mM glucose + 10% dialyzed FBS, 0.19 µM	117	108	108
RPMI 5 mM glucose + 10% dialyzed FBS, 0.569 µM	114	104	114
RPMI 5 mM glucose + 10% dialyzed FBS, 1.71 µM	75.2	102	104
RPMI 5 mM glucose + 10% dialyzed FBS, 5.12 µM	117	109	103
RPMI 5 mM glucose + 10% dialyzed FBS, 15.4 µM	117	113	104
RPMI 5 mM glucose + 10% dialyzed FBS, 46.1 µM	115	90.7	106

AUC of viability dose-response curve
Conditions	[4]	[5]	[6]
HPLM + 10% dialyzed FBS	452	456	436
RPMI 5 mM glucose + 10% FBS	455	470	457
RPMI 5 mM glucose + 10% dialyzed FBS	434	439	452

C[C@@H]\1COC(=N1)\NC2=CC3=C(C=C2)N=CN=C3NC4=CC(=C(OCC5=NC=CS5)C=C4)Cl
AUC of viability dose-response curve
Conditions	[4]	[5]	[6]
HPLM + 10% dialyzed FBS	461	454	455
RPMI 5 mM glucose + 10% FBS	457	447	447
RPMI 5 mM glucose + 10% dialyzed FBS	457	463	449
